Paper PMC4856263, “Probing the ATP Site of GRP78 with Nucleotide Triphosphate Analogs” (PLoS ONE, 2016)

Columns and labels:
[1] = target: T1, GRP78ATPase (ATPase domain of human GRP78, residues 26–407) (Homo sapiens, UniProt P11021); assay: Surface plasmon resonance (SPR) binding of nucleotides to immobilized GRP78ATPase; details: for Kd: 25 °C, mean ± SD, n = 3; for binding to GRP78ATPase upon removal of Mg++ (in words): 5 mM EDTA
T1 construct: GRP78ATPase (residues 26–407) was amplified from the full-length human GRP78; hexahistidine tag (pET28-MHL vector) (N); made in house; host or cells: E. coli BL-21(DE3)
T1 sequence (P11021 26-407): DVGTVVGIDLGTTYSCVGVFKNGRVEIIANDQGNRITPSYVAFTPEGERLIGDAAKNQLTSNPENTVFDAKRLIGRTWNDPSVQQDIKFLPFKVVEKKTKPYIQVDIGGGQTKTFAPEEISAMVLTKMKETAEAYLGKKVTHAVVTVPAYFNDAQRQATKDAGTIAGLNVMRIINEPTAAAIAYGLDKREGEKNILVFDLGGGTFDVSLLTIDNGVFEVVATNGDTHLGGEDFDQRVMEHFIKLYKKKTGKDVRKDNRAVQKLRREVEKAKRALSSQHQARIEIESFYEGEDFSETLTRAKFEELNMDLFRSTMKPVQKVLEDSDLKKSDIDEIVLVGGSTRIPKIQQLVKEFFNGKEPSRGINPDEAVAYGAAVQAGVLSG
Protocol: Successful transformants were grown in Luria Bertani broth (Sigma) for 16 hrs at 37°C, and then transferred to Terrific Broth (Sigma). Growth at 37°C continued until the OD600 reached ~3.0, whereupon the temperature was lowered to 18°C and protein expression was induced by the addition of 0.1 mM isopropyl β-D-thiogalactopyranoside. Sixteen hours post-induction, cells were collected by centrifugation and resuspended in binding buffer (30 mM Tris-HCl pH 7.5, 200 mM NaCl, 1 mM β-ME) supplemented with 0.1% octylphenoxypolyethoxyethanol, 1 mM benzamidine, and 1 mM phenylmethanesulfonyl fluoride. Cells were lysed by French press, and the lysates were clarified by centrifugation. The supernatant was loaded on to a nickel-nitrilotriacetic acid column pre-equilibrated with binding buffer. Following a wash step with binding buffer containing 30 mM imidazole, the bound protein was eluted using a linear gradient from 30 to 500 mM imidazole. The eluate was then loaded on to a 26/60 Superdex 200 size exclusion column (GE Healthcare) pre-equilibrated with 30 mM Tris-HCl pH 7.5, 200 mM NaCl and 1 mM β-ME. Target protein-containing fractions were pooled and concentrated to 30 mg/ml using 10-kDa centrifugal filter units (Amicon), and then frozen in aliquots at -80°C until further use
SPR measurements were performed on Biacore T200 instrument (GE Healthcare) at 25 °C. Purified GRP78ATPase was immobilized on a CM5 sensorchip using NHS/EDC coupling following the manufacturer protocol to a level of ~7000 RUs, a reference surfaces without immobilized GRP78ATPase served as a control for nonspecific binding and refractive index changes. […] Buffer alone injections were used as blanks. […] The running buffer was 10 mM HEPES, pH 7.4, 150 mM NaCl, 0.005% P20 and 2 mM MgCl2. Biacore equilibrium responses recorded at the end of the association step were used to determine the dissociation constant (Kd). Nonspecific signal binding was removed by subtracting a reference channel without GRP78ATPase. Binding responses at the different concentrations were globally fitted to a saturation-binding model in Prism 6 (GraphPad Software Inc., California).
The effect of Mg^++ on binding affinities was explored by repeating the same SPR protocol with two additional running buffers. The first running buffer contained no addition of Mg^++ to determine the effect of Mg^++ co-purified with GRP78ATPase (10 mM HEPES, pH 7.4, 150 mM NaCl and 0.005% P20), and the second running buffer contained 5 mM EDTA to chelate any Mg^++ present in the system (10 mM HEPES, pH 7.4, 150 mM NaCl, 0.005% P20 and 5 mM EDTA).

[2] = test system: human ecto-nucleotidases (NTPDase1, 2, 3, 8 and NPP1 and 3); details: cited from earlier work
[3] = SPR running buffer untreated (no addition of either MgCl2 or EDTA)
[4] = SPR running buffer with 2 mM MgCl2
[5] = SPR running buffer with 5 mM EDTA (Mg++ removed)

SMILES | Kd [1, 3] [µM] | Kd [1, 4] [µM] | Kd [1, 5] [µM] | hydrolysis by most human ecto-nucleotidases [2] | binding to GRP78ATPase upon removal of Mg++ (in words) [1] | affinity relative to ATP (in words) ([1]; purified GRP78ATPase, SPR)
Nc1ncnc2c1ncn2C1OC(COP(=O)(O)OP(=O)(O)C(Br)(Br)P(=O)(O)O)C(O)C1O (stereo not drawn) [AMPPCBrP] | – | – | – | cannot hydrolyze | – | –
Nc1ncnc2c1ncn2[C@@H]1O[C@H](COP(=O)(O)OP(=O)(O)CP(=O)(O)O)[C@@H](O)[C@H]1O [AMPPCP] | 52 | 59 | > 1000 | – | almost abolished binding | two-orders of magnitude lower

Now from value to molecule, other results behind:

Kd [1, 3] [µM] | Kd [1, 4] [µM] | Kd [1, 5] [µM] | SMILES | hydrolysis by most human ecto-nucleotidases [2] | binding to GRP78ATPase upon removal of Mg++ (in words) [1] | affinity relative to ATP (in words) ([1]; purified GRP78ATPase, SPR)
0.78 | 0.45 | 9.8 | Nc1ncnc2c1ncn2[C@@H]1O[C@H](COP(=O)(O)OP(=O)(O)OP(=O)(O)O)[C@@H](O)[C@H]1O [ATP] | – | – | –
0.15 | 0.03 | 0.9 | Nc1ncnc2c1ccn2C1OC(COP(=O)(O)OP(=O)(O)OP(=O)(O)O)C(O)C1O (stereo not drawn) [7-deazaATP] | – | – | –
750 | – | > 1000 | Nc1ncnc2c1ncn2[C@H]1C[C@H](O)[C@@H](COP(=O)(O)OP(=O)(O)OP(=O)(O)O)O1 [2'-deoxyATP] | – | nearly abolished the binding | –
